Converted amounts (≈) assume the structure as drawn. “And” between values parts separate entries of the source, which are not always exact repeats. Equal values may be shown once. Read-outs that look alike come from different tables or passages of the source.
Legend:
[1] = test system: MDA-MB-231; experiment: MTT cytotoxicity assay, MDA-MB-231; details: for IC50: Homo sapiens; for % viability: MDA
[2] = in vitro; details: human
[3] = test system: MCF-7; experiment: MTT cytotoxicity assay, MCF-7; details: for IC50: Homo sapiens; for anti-proliferative activity against MCF-7 (in words): SAR discussion
[4] = test system: MCF-10A; experiment: MTT cytotoxicity assay, nonmalignant MCF-10A; details: for IC50: read-out: MCF-10A IC50, MTT, nonmalignant MCF-10A;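 for all read-outs here: MTT assay with absorbance read at 570 nm after 48 h exposure of cells to serial compound concentrations at 37 °C, testing selectivity against nonmalignant versus cancer cells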
[5] = molecular target: EGFR (Homo sapiens, UniProt P00533); experiment: In vitro EGFR enzyme inhibition assay (ELISA); details: for EGFR %inh: lab report 01-11-2021
[6] = MDA-MB-231, read-out: MDA-MBA-231 IC50
[7] = MDA-MB-231, read-out: cytotoxicity_IC50 MDA
[8] = MCF7, read-out: cytotoxicity_IC50 mcf7
[9] = MCF-10A cells (nonmalignant breast)
[10] = EGFR IC50, lab report 01-11-2021, 10 compounds

Chain of EGFR (P00533 25-1210): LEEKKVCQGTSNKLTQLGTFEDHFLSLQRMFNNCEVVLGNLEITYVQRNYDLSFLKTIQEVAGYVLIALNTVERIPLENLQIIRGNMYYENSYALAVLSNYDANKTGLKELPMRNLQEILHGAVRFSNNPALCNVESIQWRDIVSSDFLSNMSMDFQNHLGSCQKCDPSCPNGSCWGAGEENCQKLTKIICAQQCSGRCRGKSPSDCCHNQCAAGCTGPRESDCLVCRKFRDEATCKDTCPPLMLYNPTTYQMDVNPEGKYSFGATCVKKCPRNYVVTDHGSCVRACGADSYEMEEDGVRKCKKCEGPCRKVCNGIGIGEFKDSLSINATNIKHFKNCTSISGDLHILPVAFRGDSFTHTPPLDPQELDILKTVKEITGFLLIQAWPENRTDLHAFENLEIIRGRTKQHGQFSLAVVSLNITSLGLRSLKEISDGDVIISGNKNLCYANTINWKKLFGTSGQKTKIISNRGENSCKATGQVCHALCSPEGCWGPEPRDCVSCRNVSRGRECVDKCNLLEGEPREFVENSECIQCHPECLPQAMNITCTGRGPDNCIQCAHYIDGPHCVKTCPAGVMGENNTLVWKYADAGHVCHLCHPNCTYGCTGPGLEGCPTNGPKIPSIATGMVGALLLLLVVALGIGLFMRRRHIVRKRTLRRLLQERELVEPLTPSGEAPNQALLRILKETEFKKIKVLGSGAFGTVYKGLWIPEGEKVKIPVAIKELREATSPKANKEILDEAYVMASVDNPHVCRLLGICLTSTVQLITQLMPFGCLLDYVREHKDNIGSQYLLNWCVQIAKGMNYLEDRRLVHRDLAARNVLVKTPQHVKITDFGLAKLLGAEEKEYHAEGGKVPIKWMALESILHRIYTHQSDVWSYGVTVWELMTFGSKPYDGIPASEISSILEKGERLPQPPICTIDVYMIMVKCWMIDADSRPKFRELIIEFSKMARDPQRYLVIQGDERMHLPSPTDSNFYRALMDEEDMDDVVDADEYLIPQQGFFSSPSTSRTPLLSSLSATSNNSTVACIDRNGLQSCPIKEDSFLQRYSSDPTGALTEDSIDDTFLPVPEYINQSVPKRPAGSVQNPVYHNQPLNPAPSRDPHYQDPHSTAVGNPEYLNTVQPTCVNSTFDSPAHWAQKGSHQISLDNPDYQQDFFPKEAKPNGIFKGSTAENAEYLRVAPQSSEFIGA

Structure (SMILES) | IC50 [1, 6] [µM] | IC50 [1, 7] [µg/mL] | % viability ([1]; 0.4ug (log conc. -0.41)) | % viability ([1]; 1.6ug (log conc. 0.19)) | % viability ([1]; 6.25ug (log conc. 0.8)) [%] | % viability ([1]; 25ug (log conc. 1.4)) | % viability ([1]; 100ug (log conc. 2)) | IC50 ([3]; MCF7, read-out: MCF-7 IC50) [µM] | IC50 [3, 8] [µg/mL] | % viability ([3]; MCF7, 0.4ug) | % viability ([3]; MCF7, 1.6ug) | % viability ([3]; MCF7, 6.3ug) | % viability ([3]; MCF7, 25ug) | % viability ([3]; MCF7, 100ug) | IC50 [4] [µM] | IC50 at 48 h [2, 9] [µg/mL] | viability at 48 h, 0.4 ug [2, 9] [%] | viability at 48 h, 1.6 ug [2, 9] [%] | viability at 48 h, 6.25 ug [2, 9] [%] | viability at 48 h, 25 ug [2, 9] [%] | further results
O=c1cc(CCl)c2ccc(O)cc2o1 [Compound 1, 4-chloromethyl-7-hydroxycoumarin] | 354 ± 4.06 | 74.5 ± 4.06 | 88.396% and 88.4% | 77.133% and 77.13% | 69.01 | 56.655% and 56.66% | 48.4642% and 48.46% | 115 ± 1.47 | 24.3 ± 1.47 | 77.743% and 77.74% | 67.269% and 67.27% | 59.663% and 59.66% | 49.002% and 49% | 41.1471% and 41.15% | 442 ± 4.53 | – | – | – | – | – | anti-proliferative activity against MDA-MB-231 (in words) ([1]; SAR discussion): devoid of activity; IC50 at 48 h [2]: 93 ± 4.53 µg/mL (≈ 442 µM); viability at 48 h, 0.4 ug [2]: 84%; viability at 48 h, 1.6 ug [2]: 75.6%; viability at 48 h, 6.25 ug [2]: 67.5%; viability at 48 h, 25 ug [2]: 57%; viability at 48 h, 100 ug [2]: 50.1%; anti-proliferative activity against MCF-7 (in words) [3]: devoid of activity; % viability ([4]; MCF10a, 0.4ug (log conc. -0.41)): 84.01%; % viability ([4]; MCF10a, 1.6ug (log conc. 0.19)): 75.58%; % viability ([4]; MCF10a, 6.25ug (log conc. 0.8)): 67.49%; % viability ([4]; MCF10a, 25ug (log conc. 1.4)): 56.99%; % viability ([4]; MCF10a, 100ug (log conc. 2)): 50.09%
O=C(OCc1cc(=O)oc2cc(O)ccc12)c1ccc(Cl)cc1 [Compound 3, (7-Hydroxy-2-oxo-2H-chromen-4-yl)methyl 4-chlorobenzoate] | 67.5 ± 1.22 | 22.3 ± 1.22 | 76.24% | 65.98% | 58.685 | 49.2762% | 40.41% | 36.6 ± 0.74 | 12.1 ± 0.74 | 72.04% | 65.12% | 53.704% | 45.5556% | 35.679% | 369 ± 5.93 | 122 ± 5.93 (≈ 369 µM) | 95.8 | 83.9 | 72.9 | 61.2 | viability at 48 h, 100 ug [2, 9]: 52.7%; IC50 [5, 10]: 0.974 µM; IC50 ([5]; EGFR inhibition IC50): 0.974 ± 0.06 µM; EGFR %inh ([5]; conc 0.01 (unit not given)): 17%; EGFR %inh ([5]; conc 0.1 (unit not given)): 36%; EGFR %inh ([5]; conc 1 (unit not given)): 60%; EGFR %inh ([5]; conc 10 (unit not given)): 85%; Percentage above Reference IC50 (potency relative to erlotinib) [5]: 8.624%
COc1ccccc1C(=O)OCc1cc(=O)oc2cc(O)ccc12 [Compound 4, (7-Hydroxy-2-oxo-2H-chromen-4-yl)methyl 2-methoxybenzoate] | 6.4 ± 0.11 | 2.08 ± 0.11 | 60.769% | 51.538% | 43.254 | 34.142% | 25.2071% | 17.2 ± 0.34 | 5.6 ± 0.34 | 68.369% | 58.612% | 49.509% | 38.9% | 30.9103% | 128 ± 2.03 | 41.6 ± 2.03 (≈ 127 µM) | 76.8 | 69.5 | 61.1 | 53.6 | viability at 48 h, 100 ug [2, 9]: 44.3%; IC50 [5, 10]: 0.438 µM; IC50 ([5]; EGFR inhibition IC50): 0.438 ± 0.027 µM; EGFR %inh ([5]; conc 0.01 (unit not given)): 25%; EGFR %inh ([5]; conc 0.1 (unit not given)): 46%; EGFR %inh ([5]; conc 1 (unit not given)): 70%; EGFR %inh ([5]; conc 10 (unit not given)): 87%; Percentage above Reference IC50 (potency relative to erlotinib) [5]: 19.178%
COc1ccccc1C(=O)OCc1cc(=O)oc2cc(OC(C)=O)ccc12 [Compound 15, (7-Acetoxy-2-oxo-2H-chromen-4-yl)methyl 2-methoxybenzoate] | 74.9 ± 1.52 | 27.9 ± 1.52 | 76.72% | 65.9% | 56.927 | 46.8873% | 37.745% | 17.1 ± 0.38 | 6.3 ± 0.38 | 67.97% | 58.26% | 50.063% | 42.623% | 31.337% | 312 ± 5.62 | 115 ± 5.62 (≈ 312 µM) | 86 | 78.2 | 68.2 | 60.1 | viability at 48 h, 100 ug [2, 9]: 50.8%; anti-proliferative activity against MCF-7 (in words) [3]: moderate anti-proliferative activity
COc1cccc2c1C(=O)c1c(O)c3c(c(O)c1C2=O)C[C@@](O)(C(=O)CO)C[C@@H]3O[C@H]1C[C@H](N)[C@H](O)[C@H](C)O1 [Doxorubicin, reference compound] | 7.3 ± 0.22 | 3.98 ± 0.22 | – | – | – | 40.9788% | – | 5.6 ± 0.18 | 3.04 ± 0.18 | 62.95% | 52.16% | 46.435% | 38.2693% | 28.946% | 22.8 ± 0.6 | 12.4 ± 0.6 (≈ 22.8 µM) | 74 | 63.5 | 55.4 | 44.6 | % viability ([1]; 0.4ug (log conc. -0.41), listed as Dox): 63.56% and 63.5613%; % viability ([1]; 1.6ug (log conc. 0.19), listed as Dox): 55.84% and 55.8373%; % viability ([1]; 6.25ug (log conc. 0.8), listed as Dox): 46.58% and 46.5802%; % viability ([1]; 100ug (log conc. 2), listed as Dox): 29.599% and 29.5991%; viability at 48 h, 100 ug [2, 9]: 35.9%; % viability ([3]; MCF7, 0.4ug (log conc. -0.4089)): 62.9494%; % viability ([3]; MCF7, 1.6ug (log conc. 0.1931)): 52.1633%; % viability ([3]; MCF7, 6.25ug (log conc. 0.7959)): 46.4351%; % viability ([3]; MCF7, 100ug (log conc. 2)): 28.9458%; % viability ([4]; MCF10a cells, 0.4ug, listed as Dox): 73.9934%; % viability ([4]; MCF10a cells, 1.6ug, listed as Dox): 63.4983%; % viability ([4]; MCF10a cells, 6.25ug (6.3ug), listed as Dox): 55.4455%; % viability ([4]; MCF10a cells, 100ug, listed as Dox): 35.9076%; IC50 ([4]; listed as DOX): 12.4 µM
